# Experimental data taken from US4393228A, “Epoxysuccinic acid derivatives” (Taisho Pharmaceutical Co., Ltd., priority 1977, dated 1983).
# Structures can show the parent of a compound that is named as a salt.
# Target: T1, papain (Carica papaya, UniProt P00784)
# T1 construct: purchased Sigma Chem. Co
# T1 sequence (P00784 134-345): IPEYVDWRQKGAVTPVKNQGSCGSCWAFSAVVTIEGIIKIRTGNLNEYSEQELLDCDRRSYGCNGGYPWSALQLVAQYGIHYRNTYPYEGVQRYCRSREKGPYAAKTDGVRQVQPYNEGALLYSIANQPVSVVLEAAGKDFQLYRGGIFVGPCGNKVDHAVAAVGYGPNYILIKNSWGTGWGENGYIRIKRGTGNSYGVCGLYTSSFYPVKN
# Test: Papain inhibitory activity (milk casein digestion)
# Type: biochemical
# Settings: papain 80 μg/ml 0.5 ml, cysteine, pH 6.8, 1% milk casein, 40° C., 10 minutes
# In short: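 Papain (80 μg/ml stock) preincubated 15 min at 40 °C with inhibitor, cysteine/EDTA activator and phosphate buffer pH 6.8. Then 1% milk casein digested 10 min at 40 °C, stopped with trichloroacetic acid and filtered; filtrate absorbance at 280 nm gives percent inhibition versus no-inhibitor control.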
row,SMILES,ID50 (amount of inhibitor for 50% inhibition)
1,"CC1CCC(OC(=O)C2OC2C(=O)OC2CCC(C)C2)C1 (stereo not drawn) [EP-31, di-3'-trans-methylcyclopentyl epoxysuccinate]",3.25 γ
2,"O=C(O)[C@H]1O[C@@H]1C(=O)OCc1ccccc1F (relative stereo) [EP-124, o-fluorobenzyl potassium epoxysuccinate]",0.10 γ
3,"O=C(CC[C@H](NC(=O)C1OC1C(=O)OC1CCCCCCC1)C(=O)OCc1ccccc1)OCc1ccccc1 (stereo partly drawn) [EP-209, N-(3-cyclooctyloxycarbonyloxirane-2-carbonyl)-L-glutamic acid dibenzyl ester]",2.45 γ
4,"O=C(NCCC[C@H](NC(=O)C1OC1C(=O)O)C(=O)OCc1ccccc1)OCc1ccccc1 (stereo partly drawn) [EP-196, N^α -(3-carboxyoxiane-2-carbonyl)-N^δ -carbobenzoxy-L-ornithine benzyl ester potassium salt]",0.11 γ
5,"O=C(O)C1OC1C(=O)OC1CC(Cl)CC(Cl)C1 (stereo not drawn) [EP-24, 3',5'-trans-dichlorocyclohexyl potassium epoxysuccinate]",0.09 γ
6,"CCOC(=O)C1OC1C(=O)N1CCC[C@H]1C(=O)OCc1ccccc1 (stereo partly drawn) [EP-152, N-(3-ethoxycarbonyloxirane-2-carbonyl)-L-proline benzyl ester]",48.20 γ
7,"O=C(O)[C@@H]1O[C@H]1C(=O)OCc1ccc2c(c1)OCO2 (relative stereo) [EP-104, methylene-3',4'-dioxybenzyl potassium epoxysuccinate]",0.36 γ
8,"COc1ccc(COC(=O)[C@@H]2O[C@H]2C(=O)OCc2ccc(OC)cc2)cc1 (relative stereo) [EP-101, di-p-methoxybenzyl epoxysuccinate]",1.51 γ
9,"O=C(OCc1cccc2c(Br)cccc12)[C@@H]1O[C@H]1C(=O)OCc1cccc2c(Br)cccc12 (relative stereo) [EP-85, di-5'-bromo-1'-naphthylmethyl epoxysuccinate]",1.56 γ
10,"CCCCOC(=O)C1OC1C(=O)N[C@@H](CCCNC(=O)OCc1ccccc1)C(=O)OCc1ccccc1 (stereo partly drawn) [EP-183, N^α -(3-n-buthoxycarbonyloxirane-2-carbonyl)-N^δ -carbobenzoxy-L-ornithine benzyl ester]",4.46 γ
11,"Cc1cc(C)c(COC(=O)[C@@H]2O[C@H]2C(=O)OCc2c(C)cc(C)cc2C)c(C)c1 (relative stereo) [EP-95, di-2',4',6'-trimethylbenzyl epoxysuccinate]",4.20 γ
12,"O=C(NCCCC[C@H](NC(=O)C1OC1C(=O)OCCc1ccccc1)C(=O)OCc1ccccc1)OCc1ccccc1 (stereo partly drawn) [EP-187, N^α -(3-phenethyloxycarbonyloxirane-2-carbonyl)-N^ε -carbobenzoxy-L-lysine benzyl ester]",1.40 γ
13,"O=C(OC1CC2C=CC1C2)C1OC1C(=O)OC1CC2C=CC1C2 (stereo not drawn) [EP-57, dinorbor-5-en-2-yl epoxysuccinate]",0.26 γ
14,"O=C(O)C1OC1C(=O)OC1CCC(Br)C(Cl)C1 (stereo not drawn) [EP-22, 3'-cis-chloro-4'-trans-bromocyclohexyl potassium epoxysuccinate]",0.12 γ
15,"O=C(O)[C@H]1O[C@@H]1C(=O)OCc1ccc(Br)c(Cl)c1 (relative stereo) [EP-126, 3'-chloro-4'-bromobenzyl potassium epoxysuccinate]",0.12 γ
16,"O=C(O)[C@@H]1O[C@H]1C(=O)O[C@H]1CC[C@H](Cl)CC1 (relative stereo) [EP-20, 4'-trans-chlorocyclohexyl potassium epoxysuccinate]",0.06 γ
17,"CC1CCCC(C)C1OC(=O)C1OC1C(=O)OC1C(C)CCCC1C (stereo not drawn) [EP-13, di-2',6'-trans-dimethylcyclohexyl epoxysuccinate]",2.50 γ
18,"O=C(O)[C@@H]1O[C@H]1C(=O)OCC1CCCO1 (relative stereo) [EP-76, tetrahydro-2-furanmethyl potassium epoxysuccinate]",0.82 γ
19,"O=C(O)[C@H]1O[C@@H]1C(=O)OCc1cccc(Cl)c1 (relative stereo) [EP-110, m-chlorobenzyl potassium epoxysuccinate]",0.24 γ
20,"O=C(OC1CCCCCCC1)[C@@H]1O[C@H]1C(=O)OC1CCCCCCC1 (relative stereo) [EP-35, dicyclooctyl epoxysuccinate]",0.98 γ

row,SMILES,ID50 (amount of inhibitor for 50% inhibition)
1,"O=C(O)[C@@H]1O[C@H]1C(=O)OCCCCC1CCCCC1 (relative stereo) [EP-68, 4-cyclohexanebutyl potassium epoxysuccinate]",0.10 γ
2,"O=C(CCNC(=O)[C@@H]1O[C@H]1C(=O)OCCCCC1CCCCC1)OCc1ccccc1 (relative stereo) [EP-208, N-[3-(4'-cyclohexylbutoxy)-carbonyloxirane-2-carbonyl]-β-alanine benzyl ester]",13.12 γ
3,"O=C(O)[C@@H]1O[C@H]1C(=O)OC1C2CC3CC(C2)CC1C3 (relative stereo) [EP-38, 2-adamantyl potassium epoxysuccinate]",0.06 γ
4,"C#CCOC(=O)[C@H]1O[C@@H]1C(=O)O (relative stereo) [EP-141, propargyl potassium epoxysuccinate]",1.45 γ
5,"CCOC(=O)C1OC1C(=O)N[C@@H](Cc1ccccc1)C(=O)OCC (stereo partly drawn) [EP-150, N-(3-ethoxycarbonyloxirane-2-carbonyl)-L-phenylalanine ethyl ester]",3.10 γ
6,"O=C(OCc1ccccc1Cl)[C@@H]1O[C@H]1C(=O)OCc1ccccc1Cl (relative stereo) [EP-107, di-o-chlorobenzyl epoxysuccinate]",0.15 γ
7,"O=C(OCc1ccc(Cl)cc1Cl)[C@H]1O[C@@H]1C(=O)OCc1ccc(Cl)cc1Cl (relative stereo) [EP-117, di-2',4'-dichlorobenzyl epoxysuccinate]",2.55 γ
8,"C=CCOC(=O)C1OC1C(=O)N[C@@H](CCCCNC(=O)OCc1ccccc1)C(=O)OCc1ccccc1 (stereo partly drawn) [EP-164, N^α -(3-allyloxycarbonyloxirane-2-carbonyl)-N^ε -carbobenzoxy-L-lysine benzyl ester]",20.49 γ
9,"C[C@@H]1CCCC[C@H]1OC(=O)[C@@H]1O[C@H]1C(=O)O (relative stereo) [EP-6, 2'-trans-methylcyclohexyl potassium epoxysuccinate]",0.09 γ
10,"O=C(O)[C@@H]1O[C@H]1C(=O)OCC1CCC=CCCC1 (relative stereo) [EP-74, 4-cyclooctenemethyl potassium epoxysuccinate]",0.07 γ
11,"CCOC(=O)CCCNC(=O)[C@@H]1O[C@H]1C(=O)OCc1ccc(Cl)cc1 (relative stereo) [EP-189, N-(3-p-chlorobenzyloxycarbonyloxirane-2-carbonyl)-γ-aminobutylic acid ethyl ester]",10.58 γ
12,"O=C(O)[C@H]1O[C@@H]1C(=O)Oc1ccccc1 (relative stereo) [EP-136, phenyl hydrogen epoxysuccinate]",2.72 γ
13,"O=C(O)[C@@H]1O[C@H]1C(=O)OCc1cccc(C(F)(F)F)c1 (relative stereo) [EP-100, 3'-trifluoromethylbenzyl potassium epoxysuccinate]",0.10 γ
14,"CCOC(=O)C1OC1C(=O)N[C@@H](CCCCNC(=O)OCc1ccccc1)C(=O)OCc1ccccc1 (stereo partly drawn) [EP-163, N^α -(3-ethoxycarbonyloxirane-2-carbonyl)-N^ε -carbobenzoxy-L-lysine benzyl ester]",29.07 γ
15,"O=C(N[C@@H](Cc1ccc(O)cc1)C(=O)OCc1ccccc1)C1OC1C(=O)OCC1CC=CCC1 (stereo partly drawn) [EP-211, N-[3-(3'-cyclohexen-1-yl)-methoxycarbonyloxirane-2-carbonyl]-L-tyrosine benzyl ester]",0.61 γ
16,"O=C(OCc1c(Cl)ccc2ccccc12)[C@@H]1O[C@H]1C(=O)OCc1c(Cl)ccc2ccccc12 (relative stereo) [EP-83, di-2'-chloro-1'-naphthylmethyl epoxysuccinate]",1.55 γ
17,"COC(=O)[C@H](CCCNC(=N)N[N+](=O)[O-])NC(=O)C1OC1C(=O)OCc1ccccc1 (stereo partly drawn) [EP-184, N^α -(3-benzyloxycarbonyloxirane-2-carbonyl)-N^G -nitro-L-arginine methyl ester]",2.91 γ
18,"O=C(O)[C@@H]1O[C@H]1C(=O)OCC1CCCCC1 (relative stereo) [EP-42, cyclohexanemethyl potassium epoxysuccinate]",0.06 γ
19,"O=C(NCCC[C@H](NC(=O)C1OC1C(=O)OCc1ccccc1)C(=O)OCc1ccccc1)OCc1ccccc1 (stereo partly drawn) [EP-182, N^α -(3-benzyloxycarbonyloxirane-2-carbonyl)-N^δ -carbobenzoxy-L-ornithine benzyl ester]",5.95 γ
